Reference: patent publication US20190071416A1, “COMPOUNDS FOR TREATMENT OF CANCER AND EPIGENETICS” (Agency For Science, Technology and Research, priority 2015, published 2019)

molecular target: T1, SMYD3 (Homo sapiens, UniProt Q9H7B4); assay: SMYD3 biochemical assay (MTase-Glo, MAP3K2 peptide substrate); details: Table 3; MTase assay, MAP3K2 peptide substrate; read-out: IC50
T1 sequence (Q9H7B4 1-428): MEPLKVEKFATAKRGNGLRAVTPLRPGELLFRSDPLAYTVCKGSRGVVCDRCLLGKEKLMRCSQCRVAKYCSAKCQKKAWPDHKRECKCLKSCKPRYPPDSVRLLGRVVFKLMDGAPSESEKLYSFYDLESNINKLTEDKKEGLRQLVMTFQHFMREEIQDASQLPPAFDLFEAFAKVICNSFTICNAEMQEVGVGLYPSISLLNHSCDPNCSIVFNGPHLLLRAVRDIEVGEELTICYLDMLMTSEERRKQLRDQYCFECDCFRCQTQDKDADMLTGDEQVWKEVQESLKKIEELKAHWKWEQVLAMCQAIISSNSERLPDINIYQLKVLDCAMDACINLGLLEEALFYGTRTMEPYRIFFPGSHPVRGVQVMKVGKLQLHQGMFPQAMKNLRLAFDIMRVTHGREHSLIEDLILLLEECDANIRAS
Procedure, shortened: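 Methylation of MAP3K2 peptide (10 µM final) with SAM (1.0 µM final) by SMYD3, 30 min at room temperature. SAH formed was enzymatically converted to ATP and detected as luminescence with MTase-Glo reagents; IC50 by non-linear regression.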

SMILES | IC50
CCCOC(=O)N1CCN(C(=O)c2ccc3c(Cl)cc(-c4ccc(C(=O)N(C)C)cc4)nc3c2)C[C@H]1C [B082, Propyl (R)-4-(4-chloro-2-(4-(dimethylcarbamoyl)phenyl)quinoline-7-carbonyl)-2-methylpiperazine-1-carboxylate] | 690 nM
CCCOC(=O)N1CCN(C(=O)c2ccc3c(Cl)cc(-c4ccc5c(cnn5C)c4)nc3c2)C[C@H]1C [B086, Propyl (R)-4-(4-chloro-2-(1-methyl-1H-indazol-5-yl)quinoline-7-carbonyl)-2-methylpiperazine-1-carboxylate] | 11 nM
CCCOC(=O)N1CCN(C(=O)c2ccc3c(Cl)cc(-c4ccc(F)c(OC)c4)nc3c2)CC1 [B087, Propyl 4-(4-chloro-2-(4-fluoro-3-methoxyphenyl)quinoline-7-carbonyl)piperazine-1-carboxylate] | 930 nM
CCCOC(=O)N1CCN(C(=O)c2ccc3c(Cl)cc(-c4ccc(-n5ccnc5)cc4)nc3c2)C[C@H]1C [B089, Propyl (R)-4-(2-(4-(1H-imidazol-1-yl)phenyl)-4-chloroquinoline-7-carbonyl)-2-methylpiperazine-1-carboxylate] | 65 nM
CCCOC(=O)N1CCN(C(=O)c2ccc3c(Cl)cc(-c4ccnn4C)nc3c2)[C@@H](C)C1 [B091, Propyl (S)-4-(4-chloro-2-(1-methyl-1H-pyrazol-5-yl)quinoline-7-carbonyl)-3-methylpiperazine-1-carboxylate] | 7500 nM
CCCOC(=O)N1CCN(C(=O)c2ccc3c(Cl)c(C)c(-c4ccc(C(N)=O)cc4)nc3c2)CC1 [B092, Propyl 4-(2-(4-carbamoylphenyl)-4-chloro-3-methylquinoline-7-carbonyl)piperazine-1-carboxylate] | 250 nM
CCCOC(=O)N1CCN(C(=O)c2ccc3c(Cl)c(C)c(-c4ccc(CN)cc4)nc3c2)CC1 [B093, Propyl 4-(2-(4-(aminomethyl)phenyl)-4-chloro-3-methylquinoline-7-carbonyl)piperazine-1-carboxylate] | 42 nM
CCCOC(=O)N1CCN(C(=O)c2ccc3c(Cl)cc(-c4ccc(S(=O)(=O)N(C)C)cc4)nc3c2)C[C@H]1C [B094, Propyl (R)-4-(4-chloro-2-(4-(N,N-dimethylsulfamoyl)phenyl)quinoline-7-carbonyl)-2-methylpiperazine-1-carboxylate] | 610 nM
CCCOC(=O)N1CCN(C(=O)c2ccc3c(Cl)cc(-c4ccc(N5CCN(C)CC5)cc4)nc3c2)C[C@H]1C [B095, Propyl (R)-4-(4-chloro-2-(4-(4-methylpiperazin-1-yl)phenyl)quinoline-7-carbonyl)-2-methylpiperazine-1-carboxylate] | 56 nM
CCCOC(=O)N1CCN(C(=O)c2ccc3c(Cl)cc(-c4cccc(-n5cnnc5)c4)nc3c2)C[C@H]1C [B096, Propyl (R)-4-(2-(3-(4H-1,2,4-triazol-4-yl)phenyl)-4-chloroquinoline-7-carbonyl)-2-methylpiperazine-1-carboxylate] | 310 nM
CCCOC(=O)N1CCN(C(=O)c2ccc3c(Cl)cc(-c4ccc(CN(C)C)cc4)nc3c2)C[C@H]1C [B098, Propyl (R)-4-(4-chloro-2-(4-((dimethylamino)methyl)phenyl)quinoline-7-carbonyl)-2-methylpiperazine-1-carboxylate] | 130 nM
CCCOC(=O)N1CCN(C(=O)c2ccc3c(Cl)cc(-c4ccc(OC)c(CO)c4)nc3c2)CC1 [B100, Propyl 4-(4-chloro-2-(3-(hydroxymethyl)-4-methoxyphenyl)quinoline-7-carbonyl)piperazine-1-carboxylate] | 110 nM
CCCOC(=O)N1CCN(C(=O)c2ccc3c(Cl)cc(-c4ccc(C#N)c(C)c4)nc3c2)CC1 [B101, Propyl 4-(4-chloro-2-(4-cyano-3-methylphenyl)quinoline-7-carbonyl)piperazine-1-carboxylate] | 1800 nM
CCCOC(=O)N1CCN(C(=O)c2ccc3c(Cl)cc(-c4ccc(S(N)(=O)=O)cc4)nc3c2)CC1 [B103, Propyl 4-(4-chloro-2-(4-sulfamoylphenyl)quinoline-7-carbonyl)piperazine-1-carboxylate] | 130 nM
CCCOC(=O)N1CCN(C(=O)c2ccc3c(Cl)cc(-c4ccc(OC)c(CN(C)C)c4)nc3c2)CC1 [B104, Propyl 4-(4-chloro-2-(3-((dimethylamino)methyl)-4-methoxyphenyl)quinoline-7-carbonyl)piperazine-1-carboxylate] | 120 nM

The remaining lines, values ahead:

IC50 | SMILES
470 nM | CCCOC(=O)N1C2CCCC1CN(C(=O)c1ccc3c(Cl)cc(-c4ccccc4)nc3c1)C2 [B081, Propyl 3-(4-chloro-2-phenylquinoline-7-carbonyl)-3,9-diazabicyclo[3.3.1]nonane-9-carboxylate]
58 nM | CCCOC(=O)N1CCN(C(=O)c2ccc3c(Cl)cc(-c4cccc(NC)c4)nc3c2)C[C@H]1C [B083, Propyl (R)-4-(4-chloro-2-(3-(methylamino)phenyl)quinoline-7-carbonyl)-2-methylpiperazine-1-carboxylate]
540 nM | CCCOC(=O)N1CCN(C(=O)c2ccc3c(Cl)cc(-c4cccs4)nc3c2)CC1 [B084, Propyl 4-(4-chloro-2-(thiophen-2-yl)quinoline-7-carbonyl)piperazine-1-carboxylate]
210 nM | CCCOC(=O)N1CCN(C(=O)c2ccc3c(Cl)cc(-c4cccs4)nc3c2)C[C@H]1C [B085, Propyl (R)-4-(4-chloro-2-(thiophen-2-yl)quinoline-7-carbonyl)-2-methylpiperazine-1-carboxylate]
14 nM | CCCOC(=O)N1CCN(C(=O)c2ccc3c(Cl)cc(-c4ccc(F)c(OC)c4)nc3c2)C[C@H]1C [B088, Propyl (R)-4-(4-chloro-2-(4-fluoro-3-methoxyphenyl)quinoline-7-carbonyl)-2-methylpiperazine-1-carboxylate]
77 nM | CCCOC(=O)N1CCN(C(=O)c2ccc3c(Cl)cc(-c4ccc(N5CCOCC5)cc4)nc3c2)C[C@H]1C [B090, Propyl (R)-4-(4-chloro-2-(4-morpholinophenyl)quinoline-7-carbonyl)-2-methylpiperazine-1-carboxylate]
110 nM | CCCOC(=O)N1CCN(C(=O)c2ccc3c(Cl)cc(-c4ccc(OC)c(CN)c4)nc3c2)CC1 [B097, Propyl 4-(2-(3-(aminomethyl)-4-methoxyphenyl)-4-chloroquinoline-7-carbonyl)piperazine-1-carboxylate]
350 nM | CCCOC(=O)N1CCN(C(=O)c2ccc3c(Cl)cc(-c4ccc(OC)c(C)c4)nc3c2)CC1 [B099, Propyl 4-(4-chloro-2-(4-methoxy-3-methylphenyl)quinoline-7-carbonyl)piperazine-1-carboxylate]
530 nM | CCCOC(=O)N1CCN(C(=O)c2ccc3c(Cl)cc(-c4cccc(C(=O)N(C)C)c4)nc3c2)CC1 [B102, Propyl 4-(4-chloro-2-(3-(dimethylcarbamoyl)phenyl)quinoline-7-carbonyl)piperazine-1-carboxylate]
860 nM | CCCOC(=O)N1CCN(C(=O)c2ccc3c(Cl)cc(-c4cccc(CN5CCOCC5)c4)nc3c2)CC1 [B105, Propyl 4-(4-chloro-2-(3-(morpholinomethyl)phenyl)quinoline-7-carbonyl)piperazine-1-carboxylate]
560 nM | CCCOC(=O)N1CCN(C(=O)c2ccc3c(Cl)cc(-c4ccc(OC)c(C#N)c4)nc3c2)C[C@H]1C [B106, Propyl (R)-4-(4-chloro-2-(3-cyano-4-methoxyphenyl)quinoline-7-carbonyl)-2-methylpiperazine-1-carboxylate]
